Experimental data published in publication PMC3466212, “Novel AChE Inhibitors for Sustainable Insecticide Resistance Management” (PLoS ONE, 2012).

The compounds below were run on C. pipiens Slab strain larvae (assay: Larval bioassay, Slab strain (OP-susceptible)). Details: Culex pipiens, 24 h, read-out: Mortality at 300 µM, Slab.
Source text: Three C. pipiens strains were used: the susceptible reference Slab strain, homozygous for ace-1 ^S [39], the resistant reference SR strain, carrying the genetical background of Slab but homozygous for the G119S mutation, allele ace-1 ^R [21] and the Ducos strain, carrying the genetical background of Slab but homozygous for an ace-1 duplication, with one ace-1^S and ace-1^R copy in tandem. Culex pipiens heterozygous larvae (Slab×SR) were obtained by crossing Slab males and SR females. Two A. gambiae reference strains (S molecular form) were used: the susceptible strain Kisumu, homozygous for ace-1 ^S, collected in Kenya in 1953 and maintained since then under laboratory conditions and the resistant Acerkis strain, carrying the genetical background of Kisumu but homozygous for an ace-1^R allele from a population collected in Bobo-Dioulasso, Burkina Faso [41].
Insecticidal activity was determined by performing bioassays on fourth-instar larvae as described in [42]. Each compound was dissolved in ethanol. Propoxur (CX) and chlorpyrifos (OP) were used as references. For each compound, we first tested mortality after a 24-hour exposure at 300 µM. […] Mortality data were analyzed by the log-probit program. This program takes into account natural mortality and provides lethal doses (LD) and slopes for each mortality line; it also computes resistance ratios (RR) for each LD, with 95% confidence intervals.

Row | Structure (SMILES) | mortality at 300 µM
1 | COP(=O)(OC)OC=C(Cl)Cl [Dichlorvos, reference compound] | 100%
2 | Nc1c2c(nc3ccccc13)CCCC2 [Tacrine, reference compound] | 85%

Same assay, conditions: fourth-instar larvae, 24 hours exposure, 300 µM

Row | Structure (SMILES) | Mortality at 300 µM, Slab
3 | CCOP(=O)(OCC)Oc1nc(Cl)c(Cl)cc1Cl [Chlorpyrifos-oxon, reference compound] | 100%
4 | C=CCN1C(=O)NC(=O)C(=Cc2ccc(C)o2)C1=O [PTF-1] | 0%
5 | Cc1ccc(C=C2C(=O)NC(=O)N(C3CCCCC3)C2=O)o1 [PTF-2] | 12%
6 | Cc1ccc(N2C(=O)NC(=O)C(=Cc3ccc(C)o3)C2=O)cc1 [PTF-4] | 78%
7 | Cc1ccc(C=C2C(=O)NC(=O)N(c3ccccc3C)C2=O)o1 [PTF-5] | 0%
8 | Cc1cccc(N2C(=O)NC(=O)C(=Cc3ccc(C)o3)C2=O)c1 [PTF-6] | 0%
9 | Cc1ccc(C=C2C(=O)NC(=O)N(c3ccc(C)c(C)c3)C2=O)o1 [PTF-7] | 100%
10 | CCc1ccc(N2C(=O)NC(=O)C(=Cc3ccc(C)o3)C2=O)cc1 [PTF-8] | 60%
11 | Cc1ccc(C=C2C(=O)NC(=O)N(c3ccc(C(C)C)cc3)C2=O)o1 [PTF-9] | 19%
12 | COc1ccccc1N1C(=O)NC(=O)C(=Cc2ccc(C)o2)C1=O [PTF-11] | 0%
13 | COc1cccc(N2C(=O)NC(=O)C(=Cc3ccc(C)o3)C2=O)c1 [PTF-12] | 46%
14 | CCOc1ccc(N2C(=O)NC(=O)C(=Cc3ccc(C)o3)C2=O)cc1 [PTF-13] | 64%
15 | COc1ccc(OC)c(N2C(=O)NC(=O)C(=Cc3ccc(C)o3)C2=O)c1 [PTF-14] | 0%
16 | Cc1ccc(C=C2C(=O)NC(=O)N(c3ccc(C(=O)O)cc3)C2=O)o1 [PTF-15] | 0%
17 | Cc1ccc(C=C2C(=O)NC(=O)N(Cc3ccco3)C2=O)o1 [PTF-16] | 80%

What follows are compounds tested on C. pipiens SR strain larvae (assay: Larval bioassay, SR strain (OP-resistant)). Details: Culex pipiens, 24 h, read-out: Mortality at 300 µM, SR.
Source text: Three C. pipiens strains were used: the susceptible reference Slab strain, homozygous for ace-1 ^S [39], the resistant reference SR strain, carrying the genetical background of Slab but homozygous for the G119S mutation, allele ace-1 ^R [21] and the Ducos strain, carrying the genetical background of Slab but homozygous for an ace-1 duplication, with one ace-1^S and ace-1^R copy in tandem. Culex pipiens heterozygous larvae (Slab×SR) were obtained by crossing Slab males and SR females.
Insecticidal activity was determined by performing bioassays on fourth-instar larvae as described in [42]. Each compound was dissolved in ethanol. Propoxur (CX) and chlorpyrifos (OP) were used as references. For each compound, we first tested mortality after a 24-hour exposure at 300 µM. […] Mortality data were analyzed by the log-probit program.

Row | Structure (SMILES) | mortality at 300 µM
18 | COP(=O)(OC)OC=C(Cl)Cl [Dichlorvos, reference compound] | 100%
19 | Nc1c2c(nc3ccccc13)CCCC2 [Tacrine, reference compound] | 95%

Same assay, conditions: fourth-instar larvae, 24 hours exposure, 300 µM

Row | Structure (SMILES) | Mortality at 300 µM, SR
20 | CCOP(=O)(OCC)Oc1nc(Cl)c(Cl)cc1Cl [Chlorpyrifos-oxon, reference compound] | 100%
21 | C=CCN1C(=O)NC(=O)C(=Cc2ccc(C)o2)C1=O [PTF-1] | 0%
22 | Cc1ccc(C=C2C(=O)NC(=O)N(C3CCCCC3)C2=O)o1 [PTF-2] | 53%
23 | Cc1ccc(N2C(=O)NC(=O)C(=Cc3ccc(C)o3)C2=O)cc1 [PTF-4] | 100%
24 | Cc1ccc(C=C2C(=O)NC(=O)N(c3ccccc3C)C2=O)o1 [PTF-5] | 0%
25 | Cc1cccc(N2C(=O)NC(=O)C(=Cc3ccc(C)o3)C2=O)c1 [PTF-6] | 0%
26 | Cc1ccc(C=C2C(=O)NC(=O)N(c3ccc(C)c(C)c3)C2=O)o1 [PTF-7] | 100%
27 | CCc1ccc(N2C(=O)NC(=O)C(=Cc3ccc(C)o3)C2=O)cc1 [PTF-8] | 100%
28 | Cc1ccc(C=C2C(=O)NC(=O)N(c3ccc(C(C)C)cc3)C2=O)o1 [PTF-9] | 39%
29 | COc1ccccc1N1C(=O)NC(=O)C(=Cc2ccc(C)o2)C1=O [PTF-11] | 0%
30 | COc1cccc(N2C(=O)NC(=O)C(=Cc3ccc(C)o3)C2=O)c1 [PTF-12] | 88%
31 | CCOc1ccc(N2C(=O)NC(=O)C(=Cc3ccc(C)o3)C2=O)cc1 [PTF-13] | 96%
32 | COc1ccc(OC)c(N2C(=O)NC(=O)C(=Cc3ccc(C)o3)C2=O)c1 [PTF-14] | 0%
33 | Cc1ccc(C=C2C(=O)NC(=O)N(c3ccc(C(=O)O)cc3)C2=O)o1 [PTF-15] | 0%
34 | Cc1ccc(C=C2C(=O)NC(=O)N(Cc3ccco3)C2=O)o1 [PTF-16] | 100%

These compounds were tested against WT AChE1 (Culex pipiens, UniProt Q86GC8) (assay: AChE assay (Ellman), dose-response on recombinant WT AChE1). Details: not given.
Type: biochemical
Parameters: made in house; host or cells: Drosophila S2 cells
Experimental: (§1) Production of C. pipiens WT and mutated AChE1s in Drosophila S2 cells was already described. The chemical library (ChemBridge, 3,000 compounds) screening was performed in duplicate on G119S recombinant AChE1. Chemicals were made soluble in ethanol or dimethylsulphoxide (DMSO), and then diluted at 300 µM in ethanol for storage. Compounds (30 µM final concentration) were incubated for 15 min at room temperature with 100 µl of G119S recombinant AChE1 then 100 µl of substrate (acetylthiocholine, 1.6 mM, Sigma-Aldrich) was added and the residual activity was quantified by measuring the optical density at 412 nm, as described by Ellman et al.. PTF analogs were analyzed in dose-response experiments (10-fold serial dilutions from 3 mM to 30 nM), using recombinant WT and G119S AChE1 or mosquito head extracts (heads cut from frozen mosquitoes, homogenized in 400 µl PB containing 1% Triton X-100 and cleared by centrifugation at 9,000×g for 3 min). Depending on compound availability, two to five replicates were performed with distinct batches of enzyme. […] IC50 was estimated by nonlinear least square regression. IC50 was also measured on AChE1 from susceptible and resistant mosquito larvae extracts.

Row | Structure (SMILES) | IC50
35 | COP(=O)(OC)OC=C(Cl)Cl [Dichlorvos, reference compound] | 0.45 µM

Same assay, conditions: recombinant wild-type C. pipiens AChE1; 15 min incubation; acetylthiocholine; read-out: IC50 WT

Row | Structure (SMILES) | IC50
36 | C=CCN1C(=O)NC(=O)C(=Cc2ccc(C)o2)C1=O [PTF-1] | 3 µM
37 | Cc1ccc(C=C2C(=O)NC(=O)N(C3CCCCC3)C2=O)o1 [PTF-2] | 12.6 µM
38 | Cc1ccc(N2C(=O)NC(=O)C(=Cc3ccc(C)o3)C2=O)cc1 [PTF-4] | 111 µM
39 | Cc1ccc(C=C2C(=O)NC(=O)N(c3ccccc3C)C2=O)o1 [PTF-5] | 1.4 µM
40 | Cc1cccc(N2C(=O)NC(=O)C(=Cc3ccc(C)o3)C2=O)c1 [PTF-6] | 4 µM
41 | Cc1ccc(C=C2C(=O)NC(=O)N(c3ccc(C)c(C)c3)C2=O)o1 [PTF-7] | 424 µM
42 | CCc1ccc(N2C(=O)NC(=O)C(=Cc3ccc(C)o3)C2=O)cc1 [PTF-8] | 312 µM
43 | Cc1ccc(C=C2C(=O)NC(=O)N(c3ccc(C(C)C)cc3)C2=O)o1 [PTF-9] | 132 µM
44 | COc1ccccc1N1C(=O)NC(=O)C(=Cc2ccc(C)o2)C1=O [PTF-11] | 1.3 µM
45 | COc1cccc(N2C(=O)NC(=O)C(=Cc3ccc(C)o3)C2=O)c1 [PTF-12] | 54 µM
46 | CCOc1ccc(N2C(=O)NC(=O)C(=Cc3ccc(C)o3)C2=O)cc1 [PTF-13] | 236 µM
47 | COc1ccc(OC)c(N2C(=O)NC(=O)C(=Cc3ccc(C)o3)C2=O)c1 [PTF-14] | 2 µM
48 | Cc1ccc(C=C2C(=O)NC(=O)N(c3ccc(C(=O)O)cc3)C2=O)o1 [PTF-15] | 9 µM
49 | Cc1ccc(C=C2C(=O)NC(=O)N(Cc3ccco3)C2=O)o1 [PTF-16] | 260 µM

The compounds below were run against T1, G119S AChE1 (Culex pipiens, UniProt Q86GC8, G247S) (assay: biochemical). Details: not given.
T1 construct: made in house; host or cells: Drosophila S2 cells
Type: biochemical
Experimental: as §1, with “Compounds (30 µM final concentration) were incubated for 15 min at room temperature with 100 µl of G119S recombinant AChE1 then 100 µl of substrate (acetylthiocholine, 1.6 mM, Sigma-Aldrich) was added and the residual activity was quantified by measuring the optical density at 412 nm, as described by Ellman et al..” left out

Row | Structure (SMILES) | IC50
50 | COP(=O)(OC)OC=C(Cl)Cl [Dichlorvos, reference compound] | 2 µM

Same assay, conditions: recombinant OP-insensitive G119S C. pipiens AChE1; 15 min incubation; acetylthiocholine; read-out: IC50 G119S

Row | Structure (SMILES) | IC50
51 | C=CCN1C(=O)NC(=O)C(=Cc2ccc(C)o2)C1=O [PTF-1] | 2.2 µM
52 | Cc1ccc(C=C2C(=O)NC(=O)N(C3CCCCC3)C2=O)o1 [PTF-2] | 5.5 µM
53 | Cc1ccc(N2C(=O)NC(=O)C(=Cc3ccc(C)o3)C2=O)cc1 [PTF-4] | 14 µM
54 | Cc1ccc(C=C2C(=O)NC(=O)N(c3ccccc3C)C2=O)o1 [PTF-5] | 1.1 µM
55 | Cc1cccc(N2C(=O)NC(=O)C(=Cc3ccc(C)o3)C2=O)c1 [PTF-6] | 4.4 µM
56 | Cc1ccc(C=C2C(=O)NC(=O)N(c3ccc(C)c(C)c3)C2=O)o1 [PTF-7] | 35 µM
57 | CCc1ccc(N2C(=O)NC(=O)C(=Cc3ccc(C)o3)C2=O)cc1 [PTF-8] | 19 µM
58 | Cc1ccc(C=C2C(=O)NC(=O)N(c3ccc(C(C)C)cc3)C2=O)o1 [PTF-9] | 21.5 µM
59 | COc1ccccc1N1C(=O)NC(=O)C(=Cc2ccc(C)o2)C1=O [PTF-11] | 1 µM
60 | COc1cccc(N2C(=O)NC(=O)C(=Cc3ccc(C)o3)C2=O)c1 [PTF-12] | 6 µM
61 | CCOc1ccc(N2C(=O)NC(=O)C(=Cc3ccc(C)o3)C2=O)cc1 [PTF-13] | 89 µM
62 | COc1ccc(OC)c(N2C(=O)NC(=O)C(=Cc3ccc(C)o3)C2=O)c1 [PTF-14] | 2 µM
63 | Cc1ccc(C=C2C(=O)NC(=O)N(c3ccc(C(=O)O)cc3)C2=O)o1 [PTF-15] | 12.9 µM
64 | Cc1ccc(C=C2C(=O)NC(=O)N(Cc3ccco3)C2=O)o1 [PTF-16] | 37 µM
